Consider 1 compound from ChEMBL document CHEMBL5154726, “Identification of triazolopyridine derivatives as a new class of AhR agonists and evaluation of anti-psoriasis effect in a mouse model” (Eur J Med Chem, 2022).

The structures appear in SMILES notation. Values after ≈ are worked out from the molar mass of the structure shown. Active and inactive are the calls of the source. The rule behind the calls is not given here. A value given as a limit tells only on which side of the number the result lay.

Data set [1] is described as follows: Apparent permeability in MDCK cells at 50 uM incubated for 90 mins by LC/MS analysis. In kind it is ADME, cell-based, Canis lupus familiaris. The conditions noted are these: dog.
A short description of data set [2]: Solubility of the compound incubated for 48 hrs under shaking condition by LC/MS analysis. In kind it is physicochemical.
Data set [3] can be described thus: n-Octanol/water partition coefficient, logD of the compound at 1 mg incubated for 48 hrs under shaking condition by LC/MS analysis. It is filed as physicochemical.
The target in data set [4] is T1, Aryl hydrocarbon receptor (Homo sapiens, UniProt P35869).
T1 sequence (P35869 whole entry): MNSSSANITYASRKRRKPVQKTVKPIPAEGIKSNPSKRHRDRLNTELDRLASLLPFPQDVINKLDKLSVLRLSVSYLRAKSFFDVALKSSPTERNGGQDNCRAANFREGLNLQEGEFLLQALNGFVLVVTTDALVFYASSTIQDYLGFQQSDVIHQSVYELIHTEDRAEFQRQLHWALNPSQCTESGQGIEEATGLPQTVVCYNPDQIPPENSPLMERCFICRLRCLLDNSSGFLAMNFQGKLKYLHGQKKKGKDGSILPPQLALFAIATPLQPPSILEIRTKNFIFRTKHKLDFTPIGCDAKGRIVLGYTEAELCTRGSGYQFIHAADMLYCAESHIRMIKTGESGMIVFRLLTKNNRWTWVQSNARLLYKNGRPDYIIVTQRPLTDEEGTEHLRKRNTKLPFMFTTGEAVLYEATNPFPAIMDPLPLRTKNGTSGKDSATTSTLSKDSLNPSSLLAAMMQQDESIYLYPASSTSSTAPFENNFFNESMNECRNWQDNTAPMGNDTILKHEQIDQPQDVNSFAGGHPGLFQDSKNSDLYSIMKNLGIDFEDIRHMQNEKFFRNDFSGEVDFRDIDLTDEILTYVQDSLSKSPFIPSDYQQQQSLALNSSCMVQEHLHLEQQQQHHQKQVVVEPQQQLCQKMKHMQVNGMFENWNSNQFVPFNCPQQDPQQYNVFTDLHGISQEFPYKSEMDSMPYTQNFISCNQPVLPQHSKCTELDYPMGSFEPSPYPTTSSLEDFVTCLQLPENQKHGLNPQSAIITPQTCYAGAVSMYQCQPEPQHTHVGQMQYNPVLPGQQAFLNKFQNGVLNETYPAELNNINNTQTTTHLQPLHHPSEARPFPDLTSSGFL
As to the kind of experiment: Induction of Ahr nuclear translocation from cytoplasm to nucleus in human HaCaT cells at 0.01 uM incubated for 1 hr by Western blot analysis. In kind it is cell-based.

The target of data set [5] is T1, Aryl hydrocarbon receptor. As to the kind of experiment: Induction of Ahr nuclear translocation in human HaCaT cells at 10 uM incubated for 90 mins by immunofluorescence analysis. In kind it is cell-based. The conditions noted are these: 1.5 h.
Data set [6] concerns the target T2, Nuclear factor erythroid 2-related factor 2 (Homo sapiens) (UniProt Q16236).
T2 sequence (whole entry): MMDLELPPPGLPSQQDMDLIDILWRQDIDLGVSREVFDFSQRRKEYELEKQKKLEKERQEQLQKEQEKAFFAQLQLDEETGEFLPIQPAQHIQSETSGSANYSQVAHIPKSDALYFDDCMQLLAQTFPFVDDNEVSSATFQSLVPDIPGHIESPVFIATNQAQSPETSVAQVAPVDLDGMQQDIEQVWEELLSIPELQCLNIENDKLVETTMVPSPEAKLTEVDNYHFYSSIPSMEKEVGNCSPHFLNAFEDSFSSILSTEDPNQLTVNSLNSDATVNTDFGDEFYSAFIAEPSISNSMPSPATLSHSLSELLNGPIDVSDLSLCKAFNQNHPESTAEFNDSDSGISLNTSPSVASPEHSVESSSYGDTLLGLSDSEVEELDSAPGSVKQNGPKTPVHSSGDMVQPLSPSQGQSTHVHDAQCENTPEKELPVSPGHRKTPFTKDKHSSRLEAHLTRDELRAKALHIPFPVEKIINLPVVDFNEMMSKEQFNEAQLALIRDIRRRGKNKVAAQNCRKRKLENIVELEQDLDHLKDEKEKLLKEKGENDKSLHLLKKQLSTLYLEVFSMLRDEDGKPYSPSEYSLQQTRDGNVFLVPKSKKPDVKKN
As to the kind of experiment: Activation of Nrf2 expression in human HaCaT cells up to 10 uM by qRT-PCR analysis. The note with it: filed as activator. In kind it is cell-based.

The target of data set [7] is NAD(P)H dehydrogenase [quinone] 1 (Homo sapiens) (UniProt P15559). As to the kind of experiment: Activation of NQO1 expression in human HaCaT cells up to 10 uM by qRT-PCR analysis. In kind it is cell-based. The note with it: filed as activator.
NAD(P)H dehydrogenase [quinone] 1 (Homo sapiens), sequence (P15559 whole entry): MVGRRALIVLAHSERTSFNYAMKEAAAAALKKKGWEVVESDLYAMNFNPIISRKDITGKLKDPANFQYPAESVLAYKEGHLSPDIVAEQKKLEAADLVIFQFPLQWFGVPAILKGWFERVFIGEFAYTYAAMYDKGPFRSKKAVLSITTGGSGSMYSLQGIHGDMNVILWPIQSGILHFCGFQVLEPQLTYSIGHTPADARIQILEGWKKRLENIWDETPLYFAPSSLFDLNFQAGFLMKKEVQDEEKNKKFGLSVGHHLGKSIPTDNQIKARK
Data set [8] is described as follows: Cytotoxicity against human BEAS-2B cells assessed as reduction in cell viability measured after 72 hrs by MTT assay. It is filed as toxicity, cell-based.
The nature of data set [9]: Cytotoxicity against HEK293T cells assessed as reduction in cell viability measured after 72 hrs by MTT assay. It is filed as toxicity, cell-based, HEK-293T. The conditions noted are these: human.
The nature of data set [10]: Cytotoxicity against human LX2 cells assessed as reduction in cell viability measured after 72 hrs by MTT assay. It is filed as toxicity, cell-based, LX-2.
Data set [11] can be described thus: Cmax in Sprague-Dawley rat at 10 mg/kg, po measured up to 24 hrs by LC-MS/MS analysis. It is filed as ADME, organism-based. The conditions noted are these: in vivo. Also noted: time < 24 hrs, dose 10 mg/kg, route po.
Data set [12] can be described thus: AUC (0 to t) in Sprague-Dawley rat at 10 mg/kg, po measured up to 24 hrs by LC-MS/MS analysis. The arrangement: dose 10 mg/kg, time < 24 hrs, route po. It is filed as ADME, organism-based. The conditions noted are these: in vivo.
Data set [13] can be described thus: AUC (0 to infinity) in Sprague-Dawley rat at 10 mg/kg, po measured up to 24 hrs by LC-MS/MS analysis. The note with it: in vivo. Also noted: time < 24 hrs, dose 10 mg/kg, route po. In kind it is ADME, organism-based.
Data set [14] can be described thus: Half life in Sprague-Dawley rat at 5 mg/kg, iv measured up to 24 hrs by LC-MS/MS analysis. In kind it is ADME, organism-based. The note with it: in vivo.
A short description of data set [15]: Half life in Sprague-Dawley rat at 10 mg/kg, po measured up to 24 hrs by LC-MS/MS analysis. In kind it is ADME, organism-based. The note with it: in vivo.
Data set [16] can be described thus: Clearance in Sprague-Dawley rat at 5 mg/kg, iv measured up to 24 hrs by LC-MS/MS analysis. It is filed as ADME, organism-based. The note with it: in vivo.
A further data set concerns the target Cytochrome P450 2C9 (Homo sapiens, UniProt P11712). As to the kind of experiment: Inhibition of CYP2C9 in human liver microsomes in presence of NADPH by LC-MS/MS analysis. It is filed as ADME, Microsome.
For data set [17], the system named is Mus musculus. As to the kind of experiment: Anti-psoriatic activity in IMQ-induced BALB/c psoriasis mouse model assessed as reduction in IL-17f expression at 0.1 to 1 % treated topically by qRT-PCR analysis. The conditions noted are these: dose 0.1-1 %. It is filed as functional, organism-based.
The subject of data set [18] is Mus musculus. As to the kind of experiment: Anti-psoriatic activity in IMQ-induced BALB/c psoriasis mouse model assessed as reduction in skin thickening at 0.1 to 1 % treated topically by H and E staining based analysis. In kind it is functional, organism-based. The conditions noted are these: dose 0.1-1 %.
Data set [19] concerns Mus musculus. As to the kind of experiment: Anti-psoriatic activity in IMQ-induced BALB/c psoriasis mouse model assessed as reduction in IL-17a expression at 5 to 20 mg/kg, po by qRT-PCR analysis. It is filed as functional, organism-based. The conditions noted are these: dose 5-20 mg/kg.
Data set [20] concerns Mus musculus. As to the kind of experiment: Anti-psoriatic activity in IMQ-induced BALB/c psoriasis mouse model assessed as reduction in IL-17f expression at 5 to 20 mg/kg, po by qRT-PCR analysis. In kind it is functional, organism-based. The conditions noted are these: dose 5-20 mg/kg.
The test system of data set [21] is Mus musculus. As to the kind of experiment: Anti-psoriatic activity in IMQ-induced BALB/c psoriasis mouse model assessed as reduction in skin thickening at 5 to 20 mg/kg, po by H and E staining based analysis. The note with it: dose 5-20 mg/kg. In kind it is functional, organism-based.
In data set [22] the test system is Mus musculus. As to the kind of experiment: Anti-psoriatic activity in IMQ-induced BALB/c psoriasis mouse model assessed as reduction in erythema at 5 to 20 mg/kg, po by H and E staining based analysis. It is filed as functional, organism-based. The note with it: dose 5-20 mg/kg.

Cytochrome P450 2C9, sequence (P11712 whole entry): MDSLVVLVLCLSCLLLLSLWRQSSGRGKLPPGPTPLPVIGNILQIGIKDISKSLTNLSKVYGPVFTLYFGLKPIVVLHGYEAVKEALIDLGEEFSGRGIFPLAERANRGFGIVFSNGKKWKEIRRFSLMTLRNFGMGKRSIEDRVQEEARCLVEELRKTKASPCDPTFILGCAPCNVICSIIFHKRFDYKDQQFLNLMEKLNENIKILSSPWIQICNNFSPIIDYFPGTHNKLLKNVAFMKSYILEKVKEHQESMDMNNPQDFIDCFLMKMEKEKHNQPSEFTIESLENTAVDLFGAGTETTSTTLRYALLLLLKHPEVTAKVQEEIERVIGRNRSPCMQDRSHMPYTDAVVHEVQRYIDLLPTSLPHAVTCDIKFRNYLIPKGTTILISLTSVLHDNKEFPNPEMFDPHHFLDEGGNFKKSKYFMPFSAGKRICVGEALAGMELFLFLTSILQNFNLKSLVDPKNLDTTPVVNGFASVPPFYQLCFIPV

Regarding `Brc1ccc(-c2nc3ccc(Br)cn3n2)cc1`, in [1], the Papp at 1.5 h, 50 µM stood at 3.49 ×10⁻⁶ cm/s. Besides, the thermodynamic solubility at 48 h in data set [2] was determined as 17.2 µg/mL (≈ 48.6 µM). In data set [3], the logD at 48 h is 2.97. Moreover, the result in data set [4] and in data set [5] was Active. In addition, the result (in data set [6]; in [7]; in the data set on Mus musculus [17]; in the data set with Mus musculus [18]; with Mus musculus [19]; in the data set on Mus musculus [20]) was Active. For the same compound, the outcome with Mus musculus [21] and with Mus musculus [22] was Active. For the same compound, the IC50 at 72 h in data set [8], in data set [9] and in data set [10] was greater than 300 µM in each case. Further, in [11], the Cmax stood at 685 ng/mL. This compound showed an AUC(0-t) at 24 h in [12] of 1400 ng·h/mL. Moreover, in [13], the AUC(0-inf) came out at 1420 ng·h/mL. Also, the values for the half-life in data set [14] and in [15] were 0.81 h and 6.97 h, respectively. The compound also gave a clearance in data set [16] of 19 mL/min/kg. Also, the IC50 on Cytochrome P450 2C9 is greater than 10 µM.
